{
  "source": "patent US8053452B2",
  "about": "“Substituted isoxazoline or enone oxime compound, and pest control agent” (Nissan Chemical Industries, Ltd., priority 2007, dated 2011)",
  "key": {"[1]": {"test_system": "Plutella xylostella", "assay": "Mortality test for Plutella xylostella", "format": "in vivo", "conditions": "144 h", "description": "(§1) A 10% emulsifiable concentrate of the compound of the present invention (depending on the type of the compound, a 10% wettable powder was subjected to the test) was diluted with water containing a spreader to prepare a drug solution in a concentration of 10 ppm. In this drug solution, a leaf of cabbage was immersed for about 10 seconds and was air-dried and then put into a petri dish. In the petri dish, five 2 instar larvae of Plutella xylostella per petri dish were released and the petri dish was capped and stored in a thermostatic room of 25° C. The number of killed larvae after 6 days was counted and the mortality was calculated from the following calculation formula: Mortality(%)=(number of killed larvae/number of released larvae)×100. Here, the test was carried out with two replications."}, "[2]": {"test_system": "Spodoptera litura", "assay": "Mortality test for Spodoptera litura", "format": "in vivo", "conditions": "144 h", "description": "as §1, with “Spodoptera litura” for “Plutella xylostella”, “same” for “following”, “formula as that in Test Example 1.” for “formula: Mortality(%)=(number of killed larvae/number of released larvae)×100.”"}, "[3]": {"test_system": "Aulacophora femoralis", "assay": "Mortality test for Aulacophora femoralis", "format": "in vivo", "conditions": "144 h", "description": "as §1, with “of 500” for “of 10”, “of cucumber” for “of cabbage”, “of Aulacophora femoralis” for “of Plutella xylostella”, “the same” for “the following”, “calculation formula as that in Test Example 1.” for “calculation formula: Mortality(%)=(number of killed larvae/number of released larvae)×100.”"}, "[4]": {"test_system": "Nilaparvata lugens", "assay": "Mortality test for Nilaparvata lugens", "format": "in vivo", "conditions": "144 h, drug solution 500 ppm, rice leaf sheath immersed, 2 instar larvae, after 6 days", "description": "(§2) A 10% emulsifiable concentrate of the compound of the present invention (depending on the type of the compound, a 10% wettable powder was subjected to the test) was diluted with water containing a spreader to prepare a drug solution in a concentration of 500 ppm. In this drug solution, a leaf sheath of rice was immersed for about 10 seconds and was air-dried and then put into a test tube. In the test tube, five 2 instar larvae of Nilaparvata lugens per test tube were released and the test tube was capped with a sponge and stored in a thermostatic room of 25° C. The number of killed larvae after 6 days was counted and the mortality was calculated from the same calculation formula as that in Test Example 1. Here, the test was carried out with two replications."}, "[5]": {"test_system": "Liriomyza trifolii", "assay": "Mortality test for Liriomyza trifolii", "format": "in vivo", "conditions": "144 h, drug solution 500 ppm, kidney bean leaf with eggs immersed, killed larvae after 6 days", "description": "as §2, with “leaf” for “leaf sheath”, “kidney bean on which Liriomyza trifolii laid eggs (10 eggs/leaf) and which was cut out to a diameter of 7 cm” for “rice”, “laid on” for “put into”, “wet filtration paper laid in a styrol cup having an inner diameter” for “test tube. In the test tube, five 2 instar larvae”, “7 cm. The styrol cup” for “Nilaparvata lugens per test tube were released and the test tube”, “capped” for “capped with a sponge”"}, "[6]": {"test_system": "Eysarcoris lewisi", "assay": "Mortality test for Eysarcoris lewisi", "format": "in vivo", "conditions": "48 h, drug solution 500 ppm, rice leaf sheath immersed, 1 instar larvae, after 2 days", "description": "as §2, with “five 1” for “five 2”, “of Eysarcoris lewisi” for “of Nilaparvata lugens”, “after 2” for “after 6”"}, "[7]": {"test_system": "Homona magnanima", "assay": "Mortality test for Homona magnanima", "format": "in vivo", "conditions": "144 h, drug solution 100 ppm, cabbage leaf immersed, 2 instar larvae, after 6 days", "description": "(§3) A 10% emulsifiable concentrate of the compound of the present invention (depending on the type of the compound, a 10% wettable powder was subjected to the test) was diluted with water containing a spreader to prepare a drug solution in a concentration of 100 ppm. In this drug solution, a leaf of cabbage was immersed for about 10 seconds and was air-dried and then put into a petri dish. In the petri dish, five 2 instar larvae of Homona magnanima per petri dish were released and the petri dish was capped and stored in a thermostatic room of 25° C. The number of killed larvae after 6 days was counted and the mortality was calculated from the same calculation formula as that in Test Example 1. Here, the test was carried out with two replications."}, "[8]": {"test_system": "Helicoverpa armigera", "assay": "Mortality test for Helicoverpa armigera", "format": "in vivo", "conditions": "144 h, drug solution 100 ppm, cabbage leaf immersed, 2 instar larva, after 6 days", "description": "as §3, with “dish, one” for “dish, five”, “instar larva” for “instar larvae”, “of Helicoverpa armigera” for “of Homona magnanima”, “dish was” for “dish were”, “with 12” for “with two”"}, "[9]": {"conditions": "drug solution 100 ppm (mark *), cabbage leaf immersed, 2 instar larvae, after 6 days, read-out: mortality"}},
  "note": "Like-named read-outs stand apart in the source and are kept apart here.",
  "data": [
    {"smiles": "NC(=O)c1ccc(C2=NOC(c3cc(C(F)(F)F)cc(C(F)(F)F)c3)(C(F)(F)F)C2Br)cc1", "note": "(stereo not shown)", "values": [
      {"measurement": "melting point", "value": "190 to 193", "unit": "°C"}
    ]},
    {"smiles": "Cc1cc(C2=NOC(c3cc(Cl)cc(Cl)c3)(C(F)(F)F)C2Cl)ccc1C(=O)NCC(F)(F)F", "note": "(stereo not shown) [1-002, 4-(4-chloro-5-(3,5-dichlorophenyl)-5-trifluoromethyl-4,5-dihydroisoxazole-3-yl)-2-methyl-N-(2,2,2-trifluoroethyl)benzoic acid amide]", "values": [
      {"measurement": "mortality at 10 ppm", "setting": "[1]; in Brassica oleracea", "value": "≥ 80", "unit": "%"},
      {"measurement": "mortality at 10 ppm", "setting": "[2]; in Brassica oleracea", "value": "≥ 80", "unit": "%"}
    ]},
    {"smiles": "Cc1cc(C2=NOC(c3cc(Cl)cc(Cl)c3)(C(F)(F)F)C2Br)ccc1C(=O)NCC(F)(F)F", "note": "(stereo not shown) [1-003, 4-(4-bromo-5-(3,5-dichlorophenyl)-5-trifluoromethyl-4,5-dihydroisoxazole-3-yl)-2-methyl-N-(2,2,2-trifluoroethyl)benzoic acid amide]", "values": [
      {"measurement": "mortality at 500 ppm", "setting": "[3]; in Cucumis sativus", "value": "≥ 80", "unit": "%"},
      {"measurement": "mortality at 500 ppm", "setting": "[4]", "value": "≥ 80", "unit": "%"},
      {"measurement": "mortality at 500 ppm", "setting": "[5]", "value": "≥ 80", "unit": "%"},
      {"measurement": "mortality at 100 ppm", "setting": "[1]; in Brassica oleracea", "value": "≥ 80", "unit": "%"},
      {"measurement": "mortality at 500 ppm", "setting": "[6]", "value": "≥ 80", "unit": "%"},
      {"measurement": "mortality at 100 ppm", "setting": "[2]; in Brassica oleracea", "value": "≥ 80", "unit": "%"}
    ]},
    {"smiles": "Cc1cc(C2=NOC(c3cc(Cl)cc(Cl)c3)(C(F)(F)F)C2C)ccc1C(=O)NCC(F)(F)F", "note": "(stereo not shown) [1-004, 4-(5-(3,5-dichlorophenyl)-4-methyl-5-trifluoromethyl-4,5-dihydroisoxazole-3-yl)-2-methyl-N-(2,2,2-trifluoroethyl)benzoic acid amide]", "values": [
      {"measurement": "mortality at 500 ppm", "setting": "[3]; in Cucumis sativus", "value": "≥ 80", "unit": "%"},
      {"measurement": "mortality at 500 ppm", "setting": "[5]", "value": "≥ 80", "unit": "%"},
      {"measurement": "mortality at 100 ppm", "setting": "[1]; in Brassica oleracea", "value": "≥ 80", "unit": "%"},
      {"measurement": "mortality at 100 ppm", "setting": "[7]", "value": "≥ 80", "unit": "%"},
      {"measurement": "mortality at 500 ppm", "setting": "[6]", "value": "≥ 80", "unit": "%"},
      {"measurement": "mortality at 100 ppm", "setting": "[2]; in Brassica oleracea", "value": "≥ 80", "unit": "%"}
    ]},
    {"smiles": "CSC1C(c2ccc(C(=O)NCC(F)(F)F)c(C)c2)=NOC1(c1cc(Cl)cc(Cl)c1)C(F)(F)F", "note": "(stereo not shown) [1-005, 4-(5-(3,5-dichlorophenyl)-4-methylthio-5-trifluoromethyl-4,5-dihydroisoxazole-3-yl)-2-methyl-N-(2,2,2-trifluoroethyl)benzoic acid amide]", "values": [
      {"measurement": "mortality at 100 ppm", "setting": "[1]; in Brassica oleracea", "value": "≥ 80", "unit": "%"},
      {"measurement": "mortality at 100 ppm", "setting": "[2]; in Brassica oleracea", "value": "≥ 80", "unit": "%"}
    ]},
    {"smiles": "CON=CNC(=O)c1ccc(C2=NOC(c3cc(C(F)(F)F)cc(C(F)(F)F)c3)(C(F)(F)F)C2Br)cc1", "note": "(stereo not shown) [1-011, 4-(4-bromo-5-(3,5-bis(trifluoromethyl)phenyl)-5-trifluoromethyl-4,5-dihydroisoxazole-3-yl)-N-(methoxyiminomethyl)benzoic acid amide]", "values": [
      {"measurement": "mortality at 500 ppm", "setting": "[4]", "value": "≥ 80", "unit": "%"},
      {"measurement": "mortality at 100 ppm", "setting": "[1]; in Brassica oleracea", "value": "≥ 80", "unit": "%"},
      {"measurement": "mortality at 100 ppm", "setting": "[2]; in Brassica oleracea", "value": "≥ 80", "unit": "%"}
    ]},
    {"smiles": "O=C(NCc1ccc(C2=NOC(c3cc(Cl)cc(Cl)c3)(C(F)(F)F)C2Br)cc1Br)C1CC1", "note": "(stereo not shown) [2-002, N-(2-bromo-4-(4-bromo-5-(3,5-dichlorophenyl)-5-trifluoromethyl-4,5-dihydroisoxazole-3-yl)phenylmethyl)cyclopropylcarboxamide]", "values": [
      {"measurement": "mortality at 500 ppm", "setting": "[4]", "value": "≥ 80", "unit": "%"}
    ]},
    {"smiles": "CC1C(c2ccc(CN(C)C(=O)C3CC3)c(Br)c2)=NOC1(c1cc(Cl)cc(Cl)c1)C(F)(F)F", "note": "(stereo not shown) [2-005, N-(2-bromo-4-(5-(3,5-dichlorophenyl)-4-methyl-5-trifluoromethyl-4,5-dihydroisoxazole-3-yl)phenylmethyl)-N-(methyl)cyclopropanecarboxamide]", "values": [
      {"measurement": "mortality at 500 ppm", "setting": "[1]; in Brassica oleracea", "value": "≥ 80", "unit": "%"},
      {"measurement": "mortality at 500 ppm", "setting": "[2]; in Brassica oleracea", "value": "≥ 80", "unit": "%"}
    ]},
    {"smiles": "CSc1ccc(C2=NOC(c3cc(Cl)cc(Cl)c3)(C(F)(F)F)C2Br)cc1", "note": "(stereo not shown) [4-002, 4-bromo-5-(3,5-dichlorophenyl)-3-(4-(methylthio)phenyl)-5-trifluoromethyl-4,5-dihydroisoxazole]", "values": [
      {"measurement": "mortality at 100 ppm", "setting": "[8]", "value": "≥ 80", "unit": "%"},
      {"measurement": "mortality at 500 ppm", "setting": "[4]", "value": "≥ 80", "unit": "%"},
      {"measurement": "mortality at 100 ppm", "setting": "[1]; in Brassica oleracea", "value": "≥ 80", "unit": "%"},
      {"measurement": "mortality at 100 ppm", "setting": "[2]; in Brassica oleracea", "value": "≥ 80", "unit": "%"}
    ]},
    {"smiles": "Cc1cc(C(/C=C(/c2cc(Cl)cc(Cl)c2)C(F)(F)F)=NO)ccc1C(=O)NCC(F)(F)F", "note": "[5-001, 4-((2Z)-3-(3,5-dichlorophenyl)-4,4,4-trifluoro-1-(hydroxyimino)-2-butenyl)-2-methyl-N-(2,2,2-trifluoroethyl)benzoic acid amide]", "values": [
      {"measurement": "mortality at 100 ppm", "setting": "[1]; [9]", "value": "≥ 80", "unit": "%"},
      {"measurement": "mortality at 100 ppm", "setting": "[2]; [9]", "value": "≥ 80", "unit": "%"}
    ]},
    {"smiles": "Cc1cc(C(/C=C(\\c2cc(Cl)cc(Cl)c2)C(F)(F)F)=NO)ccc1C(=O)NCC(F)(F)F", "note": "[6-001, 4-((2E)-3-(3,5-dichlorophenyl)-4,4,4-trifluoro-1-(hydroxyimino)-2-butenyl)-2-methyl-N-(2,2,2-trifluoroethyl)benzoic acid amide]", "values": [
      {"measurement": "mortality at 500 ppm", "setting": "[3]; drug solution 500 ppm, cucumber leaf immersed, 2 instar larvae, after 6 days, read-out: mortality", "value": "≥ 80", "unit": "%"},
      {"measurement": "mortality at 500 ppm", "setting": "[1]; drug solution 500 ppm (mark **), cabbage leaf immersed, 2 instar larvae, after 6 days, read-out: mortality", "value": "≥ 80", "unit": "%"}
    ]}
  ]
}
